From PMC9022229, “Induction of Paraptosis by Cyclometalated Iridium Complex-Peptide Hybrids and CGP37157 via a Mitochondrial Ca^2+ Overload Triggered by Membrane Fusion between Mitochondria and the Endoplasmic Reticulum” (Biochemistry, 2022)
Residues, ends and D or L forms follow the SMILES beside them. *: point of attachment. X1 = O=C(COc1ccc(-c2ccccn2)cc1)NCCCCCCCCN*

What was measured:
mitofusin 1 (MFN1) = test: Western blot analysis of MFN1 in Jurkat cells; format: cell-based; conditions: for MFN1 band intensity relative to absence of compound: Figure S8B, 12 h
Procedure: In a 1.5 mL Eppendorf tube, Jurkat cells (1.0 × 10^6 cells) were incubated in the presence of 4 ([…]), CGP37157 (100 μM for 0–24 h or 0–100 μM for 12 h), and celastrol (0–10 μM for 24 h or 1 μM for 0–24 h) at 37 °C under 5% CO2. After the cells had been washed twice with PBS, the proteins were extracted by using RIPA buffer (Nacalai Tesque) and quantified using a Pierce BCA Protein Assay Kit (Thermo Scientific). Proteins (7.5 μg/well) for MFNs and DRP1 and proteins (5.0 μg/well) for GAPDH were used for sodium dodecyl sulfate–polyacrylamide gel electrophoresis (SDS–PAGE) (7.5% for MFNs and DRP1 and 10% for GAPDH) (Bio-Rad). After SDS–PAGE, the proteins were transferred to a polyvinylidene fluoride membrane (Merck Millipore) by using a semi dry blotter (Bio-Rad). The membrane was blocked with Blocking One solution (Nacalai Tesque) for 30 min at room temperature. After being blocked, the membrane was washed three times with 1× TBST and treated with primary antibodies overnight (at a dilution of 1/1000 for MFNs and DRP1 or 1/2000 for GAPDH) in a signal enhancer HIKARI-solution A (Nacalai Tesque). The membrane was washed three times with 1× TBST and treated with the anti-mouse or anti-rabbit IgG HRP-conjugated secondary antibody (at a dilution of 1/4000 for MFNs and DRP1 or 1/10000 for GAPDH) in 1× TBST for 60 min at room temperature. The protein signal was spotted with a Chemi-Lumi One Ultra solution (Nacalai Tesque) using the ChemiDoc MP system (Bio-Rad). […]

HeLa S3 cells = test: MTT assay of HeLa S3 cells; format: cell-based, human; conditions: 24 h, 10% FBS/MEM, 37 °C, 5% CO2
Procedure: HeLa S3 and A549 cells (2.0 × 10^4 cells/well) were seeded on a 96-well plate (BD Falcon) in cell culture medium and incubated overnight at 37 °C under 5% CO2. Jurkat (2.0 × 10^4 cells/well), HeLa S3, and A549 cells were treated with 4 (0–25 μM) and CGP37157 (0–100 μM) for 1, 3, 6, 12, and 24 h at 37 °C under 5% CO2, after which a MTT solution in PBS (0.5%, 10 μL) was added to each well.
Figure S3. MTT assay of HeLa S3 cells (plain curves with filled circles) and A549 cells (dashed curves with filled squares) treated with CGP37157 (0–100 µM) in 10% FBS/MEM (HeLa S3 cells) and 10% FBS/DMEM (A549 cells) for 24 h at 37 °C under 5% CO 2.
Figure S4. MTT assay of Jurkat cells treated with inhibitors of programmed cell death; Z-VAD-fmk (an apoptosis inhibitor), necrostatin-1 (Nec-1: a necroptosis inhibitor), and 3-methyl adenine (3-MA, an autophagy inhibitor) in the presence of CGP37157 (100 µM, 12 h). Values are shown as the mean ± SD for three independent experiments. ** P < 0.01.
(also on this page, place not known: Cell viability (% control) CO2. 50 Cell viability (% control) 0300 00030 of)

Jurkat cells [1] = system: Jurkat cells; set-up: method as in PMID 25875312, PMID 28032992, doi:10.1002/ejic.201700846, PMID 30154833, PMID 30177492; conditions: Chart 1, previously reported; read-out: EC50 against Jurkat cells; cited from earlier work
IMR90 cells = system: IMR90 cells; set-up: method as in PMID 25875312, PMID 28032992, doi:10.1002/ejic.201700846, PMID 30154833, PMID 30177492; conditions: Chart 1, normal cell line, previously reported; read-out: EC50 against IMR90 cells; cited from earlier work
Jurkat cells [2] = test: Intracellular uptake in Jurkat cells by ICP-MS; format: cell-based; conditions: 5 μM, 37 °C, 5% CO2, ICP-MS, n = 3
Procedure: The time-dependent intracellular uptake of 4 into Jurkat cells was measured by ICP-MS (inductively coupled plasma-mass spectrometry). Jurkat cells were treated with 4 (5 μM) for 30 min, 1 h, 2 h, and 3 h at 37 °C under 5% CO2, washed three times with PBS, and lysed with nitric acid at 4 °C overnight. The lysates were diluted with H2O, and the samples were analyzed by ICP-MS.
In a 1.5 mL Eppendorf tube, Jurkat cells (1.0 × 10^6 cells) were treated with 4 (5 μM) for 0–3 h at 37 °C under 5% CO2 (n = 3). After the cells had been washed three times with PBS, HNO3 (60%, 0.5 mL) was added to the cells and the resulting solutions were incubated overnight at 4 °C. After centrifugation (15000 rpm, 4 °C, 10 min), the supernatant was transferred to a 15 mL tube, diluted with H2O (4.5 mL), and filtered. The number of iridium atoms was measured by ICP-MS (NexION300S, PerkinElmer).

SMILES | Expression level of MFN1 (Figure 11B) (mitofusin 1 (MFN1); CGP37157 100 μM, 1–6 h) | MFN1 band intensity relative to absence of compound (mitofusin 1 (MFN1); CGP37157 10 µM) | MFN1 band intensity relative to absence of compound (mitofusin 1 (MFN1); CGP37157 20 µM) | MFN1 band intensity relative to absence of compound (mitofusin 1 (MFN1); CGP37157 50 µM) | MFN1 band intensity relative to absence of compound (mitofusin 1 (MFN1); CGP37157 80 µM) | MFN1 band intensity relative to absence of compound (mitofusin 1 (MFN1); CGP37157 100 µM) | EC50 (HeLa S3 cells) [µM] | EC50 (Jurkat cells [1]) [µM] | EC50 (IMR90 cells) [µM] | Ir atom (intracellular amount) (Jurkat cells [2]; 30 min) [fmol/cell] | Ir atom (intracellular amount) (Jurkat cells [2]; 1 h) [fmol/cell] | Ir atom (intracellular amount) (Jurkat cells [2]; 2 h) [fmol/cell] | Ir atom (intracellular amount) (Jurkat cells [2]; 3 h) [fmol/cell]
O=C1CSC(c2ccccc2Cl)c2cc(Cl)ccc2N1 (stereo not shown) [CGP37157] | weakly changed | 1.1 | 1.1 | 0.92 | 0.80 | 0.63 | 45 |  |  |  |  |  | 
NCCCC[C@H](NC(=O)[C@H](CCCCN)NC(=O)[C@@H](N)CCCCN)C(=O)NCC(=O)NCC(=O)NCCCCCCCCNC(=O)COc1ccc(-c2ccccn2)cc1 [compound 4] (H-KKKGG-X1) |  |  |  |  |  |  |  | 1.5 | > 25 | 0.64 ± 0.01 | 1.3 ± 0.1 | 1.2 ± 0.1 | 1.5 ± 0.4
